{
  "source": "patent US10039761B2",
  "about": "“Co-crystals and pharmaceutical compositions comprising the same” (Vertex Pharmaceuticals Incorporated, priority 2013, dated 2018)",
  "key": {"[1]": {"assay": "Body weight in OD26749 xenograft studies", "type": "in vivo, nude mice", "settings": "bridging study; Compound (2) PO 50 mg/kg bid (0, 4 h), 2 Gy ([…]) qdx3; Day 1"}, "[2]": {"assay": "Body weight in OE-19 xenograft studies", "type": "in vivo", "settings": "PO 100 mg/kg bid (0, 4 h) q7dx2, 2 Gy IR q7dx2 ([…]); Day 7", "protocol": "The OE-19 cell line xenograft model was used to evaluate the efficacy of Compounds (1) and (2) alone and in combination with IR. Two cycles of treatment were administered (Day 0 and Day 7) as performed in the OD26749 model above."}, "[3]": {"tested_on": "ST-02-0004 primary GEJ tumor xenograft", "assay": "ST-02-0004 primary GEJ tumor xenograft efficacy with focused IR", "type": "in vivo", "settings": "for % T/C (Day 45): 5 mg/kg paclitaxel, 25 mg/kg carboplatin q7dx3 (−[…])", "protocol": "The in vivo activities of Compounds (1) and (2) were compared in combination with focused beam IR in a primary gastric cancer subcutaneous xenograft model. In the ST 02 0004 model, focused IR was administered on three consecutive days alone and in combination with Compound (1) or Compound (2).\nThe anti-tumor activity of Compound (2) in combination with focused-beam IR and the standard of care agents, paclitaxel and carboplatin, was also evaluated in the ST 02 0004 model. Treatment with paclitaxel, carboplatin, and IR was administered once per week for three weeks alone or in combination with Compound (2).\n(§1) In Tables 14 and 15, for example, PO bid (0, 4 h) indicates Compound (2) is administered twice (bid) at time point 0 and then 4 hours after; IR (0.25 h) qdx3 indicates radiation is administered 15 minutes (0.25 h) after the administration of Compound (2) (0 h), and once a day for 3 days (qdx3); q7dx2 indicates once a week for two weeks; qod indicates every other day twice (e.g., Day 1 and Day 3); and paclitaxel q7dx3 (−0.25 h), carboplatin q7dx3 (−0.25 h) indicates administration of paclitaxel and carboplatin 15 minutes prior to the administration of Compound (2), followed by additional administration of Compound (2) after 4 hours after the first administration of Compound (2)."}, "primary human tumors": {"tested_on": "primary human tumors", "assay": "Primary tumor chemosensitivity assay (TCA), Cell Titer-Glo, Bliss", "type": "cell-based", "settings": "Compound (2) with bleomycin; gastric, pancreatic tumors", "protocol": "Primary human tumors tested in vitro may provide a better indicator of efficacy of DNA PK inhibition than immortalized cancer cell lines due to their increased heterogeneity and closer proximity to the patient tumor from which they were derived. […] Dissociated cells from mouse-passaged tumors were cultured for 6 days after combination exposure and then assessed for viability using the Cell Titer-Glo assay. The Bliss Additivity statistical model was used to determine the degree of synergy, additivity, or antagonism of each combination treatment."}, "[4]": {"assay": "Blood exposure in OD26749 bridging study", "type": "in vivo, nude mice", "settings": "nude, mouse, whole blood; 100 mg/kg PO bid (0 and 4 h) combination groups with 2 Gy whole body IR"}, "[5]": {"tested_on": "OD26749 primary NSCLC xenograft", "assay": "OD26749 primary NSCLC xenograft efficacy with whole body IR", "type": "in vivo, nude mice", "settings": "bridging study; Compound (2) PO 50 mg/kg bid (0, 4 h), 2 Gy ([…]) qdx3", "protocol": "The in vivo efficacies of Compounds (1) and (2) in combination with whole body IR were examined in the OD26749 primary NSCLC (non-small cell lung cancer) and the OE-19 GEJ cell line xenograft models. In these studies, Compounds (1) and (2) were formulated with 16% captisol/1% PVP/1% HPMC E5 pH2.\nThe in vivo efficacy of Compound (1) was evaluated in the primary OD26749 NSCLC subcutaneous xenograft model. […] […] Compound (1) was administered PO (tid at 0, 3, and 7 h) at 100 mg/kg alone or with a single 2 Gy dose of whole body IR at 3.25 h. […] Compound (1) in combination with 2 Gy whole body IR induced significant tumor regression (% T/Ti of −75; P<0.01) compared to IR alone.\nThe efficacies of Compounds (1) and (2) in combination with whole body IR (2 Gy) were evaluated in the OD26749 primary NSCLC xenograft model at a Compound ([…]) and Compound (2) dose levels of 50 mg/kg and 100 mg/kg PO bid (0 and 4 h). Two cycles of whole body IR (2 Gy) were given 15 min after the first compound administration (0.25 hour). Control animals were administered vehicle PO bid (0 and 4 h). […]\nas §1"}, "[6]": {"assay": "Body weight in LU-01-0030 xenograft studies", "type": "in vivo, mice", "settings": "Day 34 study", "protocol": "The in vivo efficacies of Compounds (1) and (2) were evaluated alone and in combination with three consecutive days of focused IR in the primary LU-01-0030 NSCLC subcutaneous xenograft model. The dose-dependent anti-tumor activity of Compound (2) alone and in combination with focused beam IR was evaluated in the LU-01-0030 model. […] Mice in the combination treatment groups were monitored (without treatment) for up to 90 days as some mice had no evidence of tumor burden."}, "[7]": {"tested_on": "LU-01-0030 primary NSCLC subcutaneous xenograft", "assay": "LU-01-0030 primary NSCLC xenograft efficacy with focused IR", "type": "in vivo, mice", "protocol": "The in vivo efficacies of Compounds (1) and (2) were evaluated alone and in combination with three consecutive days of focused IR in the primary LU-01-0030 NSCLC subcutaneous xenograft model. The dose-dependent anti-tumor activity of Compound (2) alone and in combination with focused beam IR was evaluated in the LU-01-0030 model.\nas §1"}},
  "data": [
    {"smiles": "[2H]c1nc(C)nc([2H])c1-c1cc(NC[C@@H](C)c2cccc3c(C(=O)NC)ccnc23)ncn1", "note": "[Compound (2), (S)-N-methyl-8-(1-((2′-methyl-4′,6′-dideutero-[4,5′-bipyrimidin]-6-yl)amino)propan-2-yl)quinoline-4-carboxamide]", "values": [
      {"measurement": "Max. body wt loss (%)", "setting": "[1]", "result": "−2.10", "unit": "%"},
      {"measurement": "Max. body wt loss (%)", "setting": "[2]", "result": "−6.50", "unit": "%"},
      {"measurement": "% T/C (Day 45)", "setting": "[3]; 2 Gy IR qdx3 ([…]), Compound (2) PO 25 mg/kg bid (0, 4 h) qdx3", "result": 11.1, "unit": "%"},
      {"measurement": "% T/C (Day 45)", "setting": "[3]; 2 Gy IR qdx3 ([…]), Compound (2) PO 50 mg/kg bid (0, 4 h) qdx3", "result": 2.5, "unit": "%"},
      {"measurement": "% T/C (Day 45)", "setting": "[3]; Compound (2) PO 50 mg/kg bid (0, 4 h) qdx3, no IR", "result": 95.4, "unit": "%"},
      {"measurement": "% T/C (Day 34)", "setting": "[3]; Compound (2) PO 25 mg/kg bid (0, 4 h) qdx3, 2 Gy IR qdx3 ([…])", "result": 17.4, "unit": "%"},
      {"measurement": "% T/C (Day 34)", "setting": "[3]; Compound (2) PO 100 mg/kg bid (0, 4 h) qdx3, 2 Gy IR qdx3 ([…])", "result": 9.2, "unit": "%"},
      {"measurement": "% T/C (Day 34)", "setting": "[3]; Compound (2) PO 100 mg/kg bid (0, 4 h) qdx3, no IR", "result": 67.6, "unit": "%"},
      {"measurement": "tumors additive or synergistic / tumors tested", "setting": "primary human tumors", "result": "20/20"},
      {"measurement": "tumors strongly synergistic / tumors tested", "setting": "primary human tumors", "result": "3/20"},
      {"measurement": "AUC", "setting": "[4]", "result": 58200, "unit": "ng·h/mL"},
      {"measurement": "% T/C (Day 22)", "setting": "[5]", "result": 27.2, "unit": "%"},
      {"measurement": "Max. body wt loss (%)", "setting": "[6]; PO 25 mg/kg bid (0, 4 h) qdx3, 2 Gy IR ([…]) qdx3, Day 3", "result": "−6.59", "unit": "%"},
      {"measurement": "Max. body wt loss (%)", "setting": "[6]; PO 25 mg/kg qdx3, 2 Gy IR ([…]) qdx3, Day 1", "result": "−4.62", "unit": "%"},
      {"measurement": "Max. body wt loss (%)", "setting": "[6]; PO 50 mg/kg bid (0, 4 h) qdx3, 2 Gy IR ([…]) qdx3, Day 3", "result": "−6.93", "unit": "%"},
      {"measurement": "Max. body wt loss (%)", "setting": "[6]; PO 50 mg/kg bid (0, 4 h) qdx3, no IR, Day 9", "result": "−1.11", "unit": "%"},
      {"measurement": "Max. body wt loss (%)", "setting": "[6]; PO 50 mg/kg qdx3, 2 Gy IR ([…]) qdx3, Day 3", "result": "−4.66", "unit": "%"},
      {"measurement": "% T/Ti (Day 34)", "setting": "[7]; PO 25 mg/kg bid (0, 4 h) qdx3, 2 Gy IR ([…]) qdx3", "result": "−67.1", "unit": "%"},
      {"measurement": "% T/Ti (Day 34)", "setting": "[7]; PO 50 mg/kg bid (0, 4 h) qdx3, 2 Gy IR ([…]) qdx3", "result": "−96.3", "unit": "%"},
      {"measurement": "% T/C (Day 34)", "setting": "[7]; PO 50 mg/kg bid (0, 4 h) qdx3, no IR", "result": 98.3, "unit": "%"},
      {"measurement": "% T/Ti (Day 34)", "setting": "[7]; PO 50 mg/kg qdx3, 2 Gy IR ([…]) qdx3", "result": "−96.9", "unit": "%"}
    ]}
  ]
}
